From US20260315452A1, “PROTEASE INHIBITORS AND USES THEREOF” (priority 2023, published 2026)
Where a name gives a salt, the structure may show the parent alone.

Key:
[1] = target: SARS-CoV-2 3CLpro (Severe acute respiratory syndrome coronavirus 2, UniProt P0DTD1); experiment: biochemical; details: inhibition of SARS-CoV-2 3CLpro; 15 nM 3CLpro, 25 μM fluorogenic substrate, 37° C.; read-out: Inhibitory Activity (IC50)
[2] = test system: SARS-CoV-2; experiment: Anti-SARS-CoV-2 activity in A549 cells expressing the human ACE2 receptor (inhibition of SARS-CoV-2 replication); assay type: cell-based; details: for EC50: Severe acute respiratory syndrome coronavirus 2, A549-ACE2, 24 h, read-out: Antiviral Activity (EC50); for antiviral potency in A549 cells in comparison with compound Ref-2: versus Ref-2 (FIG. 7)

Structure (SMILES) | IC50 [1] [nM] | EC50 [2] [nM] | antiviral potency in A549 cells in comparison with compound Ref-2 [2]
O=C(c1cc(Br)cc([N+](=O)[O-])c1N[C@H]1CN(C(=O)c2cncc3ccccc23)CCC1(F)F)N1CC(F)(F)C1 [Compound 36, (S)-(5-bromo-2-((4,4-difluoro-1-(isoquinoline-4-carbonyl)piperidin-3-yl)amino)-3-nitrophenyl)(3,3-difluoroazetidin-1-yl)methanone] | < 100 | < 100 | 
O=C(N[C@@H]1CCOC1)c1cc(Br)cc([N+](=O)[O-])c1N[C@H]1CN(C(=O)c2cncc3ccccc23)CCC1(F)F [Compound 37, 5-bromo-2-(((S)-4,4-difluoro-1-(isoquinoline-4-carbonyl)piperidin-3-yl)amino)-3-nitro-N-((R)-tetrahydrofuran-3-yl)benzamide] | < 100 | < 100 | better antiviral potency
CC(C)(O)CNC(=O)c1cc(Cl)cc([N+](=O)[O-])c1N[C@H]1CN(C(=O)c2cncc3ccccc23)CCC1(F)F [Compound 40, (S)-5-chloro-2-((4,4-difluoro-1-(isoquinoline-4-carbonyl)piperidin-3-yl)amino)-N-(2-hydroxy-2-methylpropyl)-3-nitrobenzamide] | < 100 | < 100 | 
Cn1cc(NC(=O)c2cc(Cl)cc([N+](=O)[O-])c2N[C@H]2CN(C(=O)c3cncc4ccccc34)CCC2(F)F)cn1 [Compound 41, (S)-5-chloro-2-((4,4-difluoro-1-(isoquinoline-4-carbonyl)piperidin-3-yl)amino)-N-(1-methyl-1H-pyrazol-4-yl)-3-nitrobenzamide] | < 100 | < 100 | better antiviral potency
C=CCNC(=O)c1cc(Cl)cc([N+](=O)[O-])c1N[C@H]1CN(C(=O)c2cncc3ccccc23)CCC1(F)F [Compound 42, (S)-N-allyl-5-chloro-2-((4,4-difluoro-1-(isoquinoline-4-carbonyl)piperidin-3-yl)amino)-3-nitrobenzamide] | < 100 | < 100 | 
O=C(c1cc(Cl)cc([N+](=O)[O-])c1N[C@H]1CN(C(=O)c2cncc3ccccc23)CCC1(F)F)N1CC(O)C1 [Compound 43, (S)-(5-chloro-2-((4,4-difluoro-1-(isoquinoline-4-carbonyl)piperidin-3-yl)amino)-3-nitrophenyl)(3-hydroxyazetidin-1-yl)methanone] | < 100 |  | better antiviral potency
COC1CN(C(=O)c2cc(Cl)cc([N+](=O)[O-])c2N[C@H]2CN(C(=O)c3cncc4ccccc34)CCC2(F)F)C1 [Compound 44, (S)-(5-chloro-2-((4,4-difluoro-1-(isoquinoline-4-carbonyl)piperidin-3-yl)amino)-3-nitrophenyl)(3-methoxyazetidin-1-yl)methanone] | < 100 | < 100 | 
CN1CC[C@@H](NC(=O)c2cc(Br)cc([N+](=O)[O-])c2N[C@H]2CN(C(=O)c3cncc4ccccc34)CCC2(F)F)C1 [Compound 45, 5-bromo-2-(((S)-4,4-difluoro-1-(isoquinoline-4-carbonyl)piperidin-3-yl)amino)-N-((R)-1-methylpyrrolidin-3-yl)-3-nitrobenzamide hydrochloride] | < 100 | < 100 | 
O=C(N[C@@H]1CCNC1)c1cc(Br)cc([N+](=O)[O-])c1N[C@H]1CN(C(=O)c2cncc3ccccc23)CCC1(F)F [Compound 46, 5-bromo-2-(((S)-4,4-difluoro-1-(isoquinoline-4-carbonyl)piperidin-3-yl)amino)-3-nitro-N-((R)-pyrrolidin-3-yl) benzamide] | < 100 | < 100 | 
CN(C)C1CN(C(=O)c2cc(Br)cc([N+](=O)[O-])c2N[C@H]2CN(C(=O)c3cncc4ccccc34)CCC2(F)F)C1 [Compound 47] | < 100 | < 100 | 
NC(=O)c1cc(Br)cc([N+](=O)[O-])c1N[C@@H]1CCCC[C@@H]1NC(=O)c1cncc2ccccc12 [Compound 53, N-((1S,2R)-2-((4-bromo-2-carbamoyl-6-nitrophenyl)amino)cyclohexyl)isoquinoline-4-carboxamide] | 100 to 1000 | 1000 to 10000 | 
CNC(=O)c1cc(Br)cc([N+](=O)[O-])c1N[C@@H]1CCCC[C@@H]1NC(=O)c1cncc2ccncc12 [Compound 55, N-((1S, 2R)-2-((4-bromo-2-(methylcarbamoyl)-6-nitrophenyl)amino)cyclohexyl)-2,6-naphthyridine-4-carboxamide] | 100 to 1000 | 100 to 1000 | 
O=C(NCC(F)(F)F)c1cc(Br)cc([N+](=O)[O-])c1N[C@@H]1CCCC[C@@H]1NC(=O)c1cncc2ccccc12 [Compound 59, N-((1S, 2R)-2-((4-bromo-2-nitro-6-((2,2,2-trifluoroethyl)carbamoyl)phenyl)amino)cyclohexyl)isoquinoline-4-carboxamide] | 100 to 1000 | 100 to 1000 | 
CC(NC(=O)c1cc(Br)cc([N+](=O)[O-])c1N[C@@H]1CCCC[C@@H]1NC(=O)c1cncc2ccccc12)C(F)(F)F (stereo partly drawn) [Compound 60, N-((1S, 2R)-2-((4-bromo-2-nitro-6-((1,1,1-trifluoropropan-2-yl)carbamoyl)phenyl)amino)cyclohexyl)isoquinoline-4-carboxamide] | 100 to 1000 | 100 to 1000 | 
O=C(NCC(F)F)c1cc(Br)cc([N+](=O)[O-])c1N[C@@H]1CCCC[C@@H]1NC(=O)c1cncc2ccccc12 [Compound 61, N-((IS, 2R)-2-((4-bromo-2-((2,2-difluoroethyl)carbamoyl)-6-nitrophenyl)amino)cyclohexyl)isoquinoline-4-carboxamide] | < 100 | < 100 | 
CNC(=O)c1cc(Br)cc([N+](=O)[O-])c1N[C@H]1CN(C(=O)c2cncc3ccccc23)CC(F)(F)C1 [Compound 62, (R)-5-bromo-2-((5,5-difluoro-1-(isoquinoline-4-carbonyl)piperidin-3-yl)amino)-N-methyl-3-nitrobenzamide] | 100 to 1000 | 100 to 1000 | 
CNC(=O)c1cc(Br)cc([N+](=O)[O-])c1N[C@@H]1CCN(C(=O)c2cncc3ccccc23)C1 [Compound 64, (R)-5-bromo-2-((1-(isoquinoline-4-carbonyl)pyrrolidin-3-yl)amino)-N-methyl-3-nitrobenzamide] | 100 to 1000 | 100 to 1000 | 
CNC(=O)c1cc(Br)cc([N+](=O)[O-])c1N1CCC2(CCN(C(=O)c3cncc4ccccc34)C2)C1 (stereo not drawn) [Compound 66, 5-bromo-2-(7-(isoquinoline-4-carbonyl)-2,7-diazaspiro[4.4]nonan-2-yl)-N-methyl-3-nitrobenzamide] | 100 to 1000 | 100 to 1000 | 
CNC(=O)c1cc(Br)cc([N+](=O)[O-])c1N1CC(F)(F)C2(CCN(C(=O)c3cncc4ccccc34)C2)C1 (stereo not drawn) [Compound 67, 5-bromo-2-(4,4-difluoro-7-(isoquinoline-4-carbonyl)-2,7-diazaspiro[4.4]nonan-2-yl)-N-methyl-3-nitrobenzamide] | 100 to 1000 | 100 to 1000 | 
CNC(=O)c1cc(Br)cc([N+](=O)[O-])c1N[C@@H]1CCOC[C@@H]1NC(=O)c1cncc2ccccc12 [Compound 70, N-((3R, 4R)-4-((4-bromo-2-(methylcarbamoyl)-6-nitrophenyl)amino)tetrahydro-2H-pyran-3-yl)isoquinoline-4-carboxamide] | 100 to 1000 | 100 to 1000 | 
